Results on 8 molecules are retold here after ChEMBL document CHEMBL1201862, “PubChem BioAssay data set” (2004).

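Results reflect a 48-hour exposure of cells in 96-well plates to compound at five concentrations. At the GI50, growth is halved.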 Calls of active or inactive are those of the source. Cut-off read from the data, not from the text of the source: active = GI50 up to about 1.1 µM and inactive = higher.

Among the test systems are OVCAR-8; UO-31; HT-29; Malme-3M; RPMI-8226; MDA-MB-231; MOLT-4; HL-60; CAKI-1; NCI-H226; SW-620; SF-295; OVCAR-5; HCT-116; OVCAR-3; NCI/ADR-RES; U-251; HCT-15; SK-OV-3.
What all share (experiment): DTP human tumour cell line panel, 48 h

On to `O=C(Nc1cc2cc([N+](=O)[O-])ccc2oc1=O)c1cccs1`, for which the GI50 is 34.2 µM (inactive) in the test on OVCAR-8; 60.4 µM (inactive) with UO-31; 39.5 µM (inactive) in the test on HT-29; > 100 µM (inactive) in the test on Malme-3M; 34 µM (inactive) with RPMI-8226; 34.9 µM (inactive) with MDA-MB-231. The GI50 with MOLT-4 is 25.3 µM (inactive); in the test on HL-60 it was 16.7 µM (inactive); in the test on CAKI-1, 48.6 µM (inactive); in the test on NCI-H226 it was 44 µM (inactive); with SW-620 it was 49.9 µM (inactive); in the test on SF-295, 54.2 µM (inactive). Further, the GI50 with OVCAR-5 was > 100 µM (inactive); in the test with HCT-116 it was 25.4 µM (inactive); in the test with OVCAR-3 it was 97.5 µM (inactive); in the test with NCI/ADR-RES it was 62.2 µM (inactive); in the test on U-251, 19.8 µM (inactive).

With `OCC1(CNc2cc(Cl)ncn2)CCC1`, the GI50 with OVCAR-8, with UO-31, in the test with HT-29, in the test on Malme-3M, with RPMI-8226 and in the test on MDA-MB-231 was > 100 µM (inactive) throughout. For the same molecule, the GI50 in the test on MOLT-4 is > 100 µM (inactive); with HCT-15, above 100 µM; with HL-60, > 100 µM (inactive); with NCI-H226 it was > 100 µM (inactive); in the test on SW-620, > 100 µM (inactive); with SF-295, > 100 µM (inactive). Also, the GI50 in the test with OVCAR-5, with HCT-116, in the test with OVCAR-3, with NCI/ADR-RES and in the test on U-251 was > 100 µM (inactive) in each case.

Turning to `CC1=CC(=O)/C(=C/NC(=S)C(N)=S)C(=O)O1`, the GI50 in the test on OVCAR-8 was > 100 µM (inactive); with UO-31, > 100 µM (inactive); with HT-29, > 100 µM (inactive); in the test with RPMI-8226, > 100 µM (inactive); in the test on MDA-MB-231, > 100 µM (inactive); in the test on MOLT-4 it was 16 µM (inactive). For the same molecule, the GI50 in the test on HCT-15 was above 100 µM; in the test on HL-60 it was 47.5 µM (inactive); with SK-OV-3, > 100 µM (inactive); in the test on CAKI-1, > 100 µM (inactive); in the test on NCI-H226, > 100 µM (inactive); in the test with SW-620, > 100 µM (inactive). The GI50 in the test with SF-295, in the test with OVCAR-5, in the test on HCT-116, with OVCAR-3, in the test with NCI/ADR-RES and with U-251 was > 100 µM (inactive) each time.

Take `O=CC1C(=O)Nc2nc3ccccc3n2C1c1ccccc1` (stereo unspecified): the GI50 is 11.7 µM (inactive) in the test with OVCAR-8; 13.7 µM (inactive) in the test with UO-31; 20.4 µM (inactive) with HT-29; 18.8 µM (inactive) in the test with Malme-3M; 16.3 µM (inactive) in the test on RPMI-8226; 15.4 µM (inactive) in the test with MDA-MB-231. Also, the concentration for 50% growth inhibition (GI50) in the test with MOLT-4 was 0.258 µM (active); in the test with HCT-15 it was 15.1 µM; in the test on HL-60 it was 20.6 µM (inactive); with CAKI-1, 21.1 µM (inactive); with NCI-H226, 17.1 µM (inactive); in the test with SW-620, 17.8 µM (inactive). Further, the GI50 with SF-295 was 20.9 µM (inactive); with OVCAR-5 it was 25.2 µM (inactive); in the test with HCT-116, 12.4 µM (inactive); in the test with OVCAR-3, 7.89 µM (inactive); in the test with NCI/ADR-RES it was 54.7 µM (inactive); in the test with U-251, 14.4 µM (inactive).

Consider `O=C1/C(=C/c2ccc(Cl)cc2)N=C(c2ccccc2)N1C1Nc2cc3c(cc2S1)NC(N1C(=O)/C(=C/c2ccc(Cl)cc2)N=C1c1ccccc1)S3` (stereo unspecified), for which the GI50 in the test on OVCAR-8 was 39.1 µM (inactive); in the test on UO-31 it was 80.2 µM (inactive); with HT-29, 52.6 µM (inactive); with RPMI-8226, 23.8 µM (inactive); with MDA-MB-231, > 100 µM (inactive); in the test with MOLT-4, 4.14 µM (inactive). Moreover, the GI50 in the test on HCT-15 is 49 µM; with HL-60, 0.336 µM (active); with SK-OV-3 it was > 100 µM (inactive); in the test with CAKI-1, > 100 µM (inactive); with NCI-H226, > 100 µM (inactive); with SW-620, 22 µM (inactive). Also, the GI50 with SF-295 was 73.5 µM (inactive); in the test with OVCAR-5, > 100 µM (inactive); with HCT-116 it was 35.9 µM (inactive); in the test on OVCAR-3, 49.8 µM (inactive); in the test on NCI/ADR-RES it was 63.8 µM (inactive); in the test with U-251, 32.3 µM (inactive).

Turning to `Cc1ccc(S(=O)(=O)N2C3C=CC(C3)[C@@H]2C(Cl)(Cl)Cl)cc1` (stereo partly specified), the GI50 was 15.7 µM (inactive) in the test with OVCAR-8; 15 µM (inactive) in the test on UO-31; 11.8 µM (inactive) in the test on HT-29; 18.9 µM (inactive) in the test on Malme-3M; 3.09 µM (inactive) with RPMI-8226; 12.5 µM (inactive) in the test with MDA-MB-231. For the same molecule, the GI50 in the test on MOLT-4 is 19.3 µM (inactive); in the test on HCT-15 it was 19.1 µM; in the test on HL-60, 1.66 µM (inactive); in the test on CAKI-1, 13.3 µM (inactive); in the test with NCI-H226, 15 µM (inactive); in the test with SW-620, 20 µM (inactive). The GI50 in the test on SF-295 was 13.6 µM (inactive); in the test on OVCAR-5, 0.0391 µM (active); in the test with HCT-116 it was 10.8 µM (inactive); in the test on OVCAR-3, 6.64 µM (inactive); in the test with NCI/ADR-RES it was 9.51 µM (inactive); in the test with U-251, 15 µM (inactive).

Turning to `CN(C)c1cc2ccccc2oc1=O`, the GI50 in the test with OVCAR-8, with UO-31, in the test with HT-29, in the test with Malme-3M, in the test on RPMI-8226 and with MDA-MB-231 was > 100 µM (inactive) each time. The GI50 was > 100 µM (inactive) with MOLT-4; above 100 µM in the test on HCT-15; > 100 µM (inactive) in the test on HL-60; > 100 µM (inactive) with CAKI-1; > 100 µM (inactive) in the test with NCI-H226; > 100 µM (inactive) in the test on SW-620. Besides, the GI50 in the test with SF-295, in the test on OVCAR-5, in the test with HCT-116, in the test with OVCAR-3, in the test on NCI/ADR-RES and in the test on U-251 was > 100 µM (inactive) each time.

On to `Clc1cccc2[nH]ncc12`, for which the GI50 with OVCAR-8 was > 100 µM (inactive); with HT-29 it was > 100 µM (inactive); in the test on RPMI-8226, > 100 µM (inactive); in the test with MDA-MB-231, > 100 µM (inactive); in the test on MOLT-4 it was > 100 µM (inactive); in the test with HCT-15 it was above 100 µM. Moreover, the GI50 was > 100 µM (inactive) in the test on HL-60; > 100 µM (inactive) in the test with SK-OV-3; 68.4 µM (inactive) with CAKI-1; > 100 µM (inactive) in the test on NCI-H226; > 100 µM (inactive) in the test on SW-620; > 100 µM (inactive) in the test on SF-295. Also, the GI50 was > 100 µM (inactive) in the test with OVCAR-5; 66.7 µM (inactive) in the test on HCT-116; > 100 µM (inactive) in the test with OVCAR-3; > 100 µM (inactive) in the test with NCI/ADR-RES; > 100 µM (inactive) in the test on U-251.
